Laboratory results reported in BindingDB's records for doi:10.1046/j.1471-4159.1994.62010001.x (Allelix Biopharmaceuticals, 1994).

These compounds were tested against T1, Glutamate receptor ionotropic, kainate 4 (Homo sapiens, UniProt Q16099).
T1 sequence (Q16099 whole entry): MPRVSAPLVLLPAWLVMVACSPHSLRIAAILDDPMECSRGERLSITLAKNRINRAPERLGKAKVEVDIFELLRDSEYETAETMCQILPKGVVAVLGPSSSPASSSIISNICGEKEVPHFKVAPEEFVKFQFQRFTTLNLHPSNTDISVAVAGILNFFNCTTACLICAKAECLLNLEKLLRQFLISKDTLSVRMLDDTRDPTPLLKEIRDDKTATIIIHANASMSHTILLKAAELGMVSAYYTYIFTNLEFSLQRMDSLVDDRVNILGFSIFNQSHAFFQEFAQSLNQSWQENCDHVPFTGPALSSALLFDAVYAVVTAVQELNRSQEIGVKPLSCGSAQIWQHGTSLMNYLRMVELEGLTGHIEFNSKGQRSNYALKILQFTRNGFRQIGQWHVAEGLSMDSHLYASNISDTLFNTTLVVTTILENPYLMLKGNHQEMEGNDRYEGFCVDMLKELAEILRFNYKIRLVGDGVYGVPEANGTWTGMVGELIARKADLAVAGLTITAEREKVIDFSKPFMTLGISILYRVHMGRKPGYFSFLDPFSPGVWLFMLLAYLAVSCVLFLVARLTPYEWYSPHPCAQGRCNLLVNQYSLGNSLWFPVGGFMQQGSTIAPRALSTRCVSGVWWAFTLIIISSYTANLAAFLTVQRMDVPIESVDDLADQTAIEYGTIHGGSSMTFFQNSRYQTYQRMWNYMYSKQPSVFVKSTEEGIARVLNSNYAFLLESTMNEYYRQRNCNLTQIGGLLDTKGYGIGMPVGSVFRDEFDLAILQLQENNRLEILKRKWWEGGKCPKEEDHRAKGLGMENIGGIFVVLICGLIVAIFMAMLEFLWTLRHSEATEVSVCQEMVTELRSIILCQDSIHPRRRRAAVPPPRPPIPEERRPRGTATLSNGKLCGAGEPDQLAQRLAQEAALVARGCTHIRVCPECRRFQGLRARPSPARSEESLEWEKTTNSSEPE
`Cc1onc(O)c1CC(N)C(=O)O` (stereo not drawn) [(RS)-2-amino-3-(3-hydroxy-5-methylisoxazol-4-yl)-propionicacid] gave a Ki of 1970 nM. `O=C1N=c2cc([N+](=O)[O-])c([N+](=O)[O-])cc2=NC1=O` [NSC_3140] was tested, and the Ki was 8490 nM. `C/C(=C\C=C\[C@@H](C)C(=O)O)[C@H]1CN[C@H](C(=O)O)[C@H]1CC(=O)O` was tested, and the Ki was 10.5 nM. `N#Cc1cc2nc(O)c(O)nc2cc1[N+](=O)[O-]` [7-Cyano-3-hydroxy-6-nitro-quinoxalin-2-ol anion] showed a Ki greater than 10000 nM. Work on `C=C(C)[C@H]1CN[C@H](C(=O)O)[C@H]1CC(=O)O` [Digensaeure] yielded a Ki of 2.29 nM. In the case of `CN[C@H](CC(=O)O)C(=O)O` [NMDA], the Ki is reported as greater than 10000 nM. Work on `CC(C)[C@H]1CN[C@H](C(=O)O)[C@H]1CC(=O)O` [dihydrokainic acid] yielded a Ki of 3840 nM. With `N[C@@H](Cn1oc(=O)[nH]c1=O)C(=O)O` [2-amino-3-(3,5-dioxo[1,2,4]oxadiazolidin-2-yl)propionic acid] the Ki was 6.43 nM. Work on `NC(CCC(=O)O)C(=O)O` (centres undefined) [glutamic acid dianion] yielded a Ki of 18.3 nM.
